Data as given in ChEMBL document CHEMBL1201862, “PubChem BioAssay data set” (2004).
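Five compound concentrations were applied to cells in 96-well plates for 48 hours; endpoints were derived by simple linear interpolation of the resulting dose-response curve. GI50 is the concentration that inhibits growth by half.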 Active and inactive are the calls of the source. No stated cut-off is given here; in the data, active = GI50 up to about 1.1 µM and inactive = higher.

Key:
Test in all cases: growth of human tumour cells (NCI), 48 h
KM-20L2 = tested on: KM-20L2
HOP-18 = tested on: HOP-18
DMS-114 = tested on: DMS-114
DMS-273 = tested on: DMS-273
DLD-1 = tested on: DLD-1
XF498 = tested on: XF498
RXF 631 = tested on: RXF 631
LXFL 529 = tested on: LXFL 529
SNB-78 = tested on: SNB-78

## COC(=O)C(=O)C(C(=O)C(=O)Nc1cc([N+](=O)[O-])ccc1C#N)c1nc2ccccc2nc1O (centres undefined)
KM-20L2
  GI50: > 100 µM (inactive)
HOP-18
  GI50: > 100 µM (inactive)
DMS-114
  GI50: > 100 µM (inactive)
DMS-273
  GI50: > 100 µM (inactive)
DLD-1
  GI50: > 100 µM (inactive)
XF498
  GI50: > 100 µM (inactive)
RXF 631
  GI50: > 100 µM (inactive)
LXFL 529
  GI50: > 100 µM (inactive)

## NC(=S)N/N=C1\C(=O)N(CCc2ccccc2)C(=O)C1C(=O)NCCc1ccccc1 (centres undefined)
SNB-78
  GI50: > 100 µM (inactive)
KM-20L2
  GI50: > 100 µM (inactive)
HOP-18
  GI50: > 100 µM (inactive)
DMS-114
  GI50: 74.8 µM (inactive)
DMS-273
  GI50: > 100 µM (inactive)
LXFL 529
  GI50: > 100 µM (inactive)

## COC(=O)c1c(N)n[nH]c1N
SNB-78
  GI50: > 100 µM (inactive)
KM-20L2
  GI50: > 100 µM (inactive)
DMS-273
  GI50: > 100 µM (inactive)
DLD-1
  GI50: > 100 µM (inactive)
XF498
  GI50: > 100 µM (inactive)
RXF 631
  GI50: > 100 µM (inactive)

## Cc1ccc(/C=C2\CCCCC2=O)cc1
SNB-78
  GI50: 73.6 µM (inactive)
KM-20L2
  GI50: > 100 µM (inactive)
HOP-18
  GI50: 24 µM (inactive)
DMS-114
  GI50: 43.6 µM (inactive)
DMS-273
  GI50: 40.1 µM (inactive)
DLD-1
  GI50: 49.2 µM (inactive)
XF498
  GI50: > 100 µM (inactive)
RXF 631
  GI50: > 100 µM (inactive)
LXFL 529
  GI50: 94.6 µM (inactive)

## CC(CCc1ccc2c(c1)c(N)c1ccc(N)cc1[n+]2[O-])CC(C)(C)C (centres undefined)
SNB-78
  GI50: 2.05 µM (inactive)
KM-20L2
  GI50: 1.37 µM (inactive)
HOP-18
  GI50: 1.93 µM (inactive)
DMS-273
  GI50: 2.21 µM (inactive)
DLD-1
  GI50: 1.82 µM (inactive)
XF498
  GI50: 1.16 µM (inactive)
RXF 631
  GI50: 1.65 µM (inactive)
LXFL 529
  GI50: 1.53 µM (inactive)

## CN(CC1NCCCC1O)C12CC3CC(CC(C3)C1)C2 (centres undefined)
KM-20L2
  GI50: > 100 µM (inactive)
HOP-18
  GI50: > 100 µM (inactive)
DMS-114
  GI50: > 100 µM (inactive)
DMS-273
  GI50: > 100 µM (inactive)
DLD-1
  GI50: > 100 µM (inactive)
XF498
  GI50: > 100 µM (inactive)
LXFL 529
  GI50: > 100 µM (inactive)

## CC1=C(C(=O)Nc2ccccc2)C(c2ccc(C(C)C)cc2)C(C(=O)Nc2ccccc2)=C(C)N1
SNB-78
  GI50: 31.5 µM (inactive)
KM-20L2
  GI50: 15.2 µM (inactive)
HOP-18
  GI50: 19.1 µM (inactive)
DMS-114
  GI50: 7.26 µM (inactive)
DLD-1
  GI50: 17.5 µM (inactive)
XF498
  GI50: 13.1 µM (inactive)
RXF 631
  GI50: 18.2 µM (inactive)
LXFL 529
  GI50: 16.7 µM (inactive)

## Cc1cc2c(cc1C)[n+]([O-])c(C(=O)/C=C/c1ccc3c(c1)OCO3)c(C)[n+]2[O-]
SNB-78
  GI50: 60.3 µM (inactive)
KM-20L2
  GI50: > 100 µM (inactive)
HOP-18
  GI50: > 100 µM (inactive)
DMS-114
  GI50: 33.1 µM (inactive)
DMS-273
  GI50: 27 µM (inactive)
DLD-1
  GI50: > 100 µM (inactive)
XF498
  GI50: 27 µM (inactive)
RXF 631
  GI50: 10.1 µM (inactive)

## CCc1ccccc1NC(=O)CC1NC(=O)CS1 (centres undefined)
SNB-78
  GI50: > 100 µM (inactive)
KM-20L2
  GI50: > 100 µM (inactive)
HOP-18
  GI50: > 100 µM (inactive)
DMS-114
  GI50: > 100 µM (inactive)
DMS-273
  GI50: > 100 µM (inactive)
DLD-1
  GI50: > 100 µM (inactive)
XF498
  GI50: > 100 µM (inactive)
RXF 631
  GI50: > 100 µM (inactive)
LXFL 529
  GI50: > 100 µM (inactive)

## CCCOP1(=O)C=C(C)C(Cl)=C(C)C1 (centres undefined)
KM-20L2
  GI50: 29.3 µM (inactive)
HOP-18
  GI50: 29.4 µM (inactive)
DMS-114
  GI50: 19.7 µM (inactive)
DMS-273
  GI50: 14.6 µM (inactive)
DLD-1
  GI50: 22.8 µM (inactive)
XF498
  GI50: 16.5 µM (inactive)
RXF 631
  GI50: 37.1 µM (inactive)
LXFL 529
  GI50: 20.7 µM (inactive)

## COc1cc(Cl)c2c3c(c(C(=O)c4ccccc4)oc13)CCC2
SNB-78
  GI50: > 100 µM (inactive)
KM-20L2
  GI50: > 100 µM (inactive)
HOP-18
  GI50: > 100 µM (inactive)
DMS-114
  GI50: > 100 µM (inactive)
DMS-273
  GI50: 69.7 µM (inactive)
DLD-1
  GI50: > 100 µM (inactive)
XF498
  GI50: > 100 µM (inactive)
LXFL 529
  GI50: > 100 µM (inactive)

## COc1cc2c(cc1O)C1C(O)C(O)C=C3CCN(C2)C31 (centres undefined)
SNB-78
  GI50: 0.565 µM (active)
KM-20L2
  GI50: 2.34 µM (inactive)
HOP-18
  GI50: 2.43 µM (inactive)
DMS-114
  GI50: 1.09 µM (active)
DMS-273
  GI50: 1.95 µM (inactive)
DLD-1
  GI50: 2.47 µM (inactive)
XF498
  GI50: 1.36 µM (inactive)
RXF 631
  GI50: 2.97 µM (inactive)
LXFL 529
  GI50: 3.18 µM (inactive)

## CC1(C)c2ccccc2N2C(c3ccccc3)=NOC21C (centres undefined)
SNB-78
  GI50: > 100 µM (inactive)
KM-20L2
  GI50: > 100 µM (inactive)
HOP-18
  GI50: > 100 µM (inactive)
DMS-114
  GI50: > 100 µM (inactive)
DMS-273
  GI50: > 100 µM (inactive)
DLD-1
  GI50: > 100 µM (inactive)
RXF 631
  GI50: > 100 µM (inactive)
LXFL 529
  GI50: > 100 µM (inactive)

## CCOC(=O)/C(O)=C(/c1n[nH]c(=O)c2ccccc12)[N+](=O)[O-]
SNB-78
  GI50: > 100 µM (inactive)
KM-20L2
  GI50: > 100 µM (inactive)
HOP-18
  GI50: > 100 µM (inactive)
DMS-114
  GI50: > 100 µM (inactive)
DMS-273
  GI50: > 100 µM (inactive)
DLD-1
  GI50: > 100 µM (inactive)
LXFL 529
  GI50: > 100 µM (inactive)

## Cc1cc(Cl)ccc1NC(=O)C1C(=O)N(c2ccc(Cl)cc2C)C(=O)/C1=N\N (centres undefined)
SNB-78
  GI50: 74.8 µM (inactive)
KM-20L2
  GI50: 36 µM (inactive)
HOP-18
  GI50: 40.6 µM (inactive)
DMS-114
  GI50: 30.1 µM (inactive)
XF498
  GI50: 65 µM (inactive)
LXFL 529
  GI50: 44 µM (inactive)

## Cc1c2n(c(=O)[nH]c1=O)C1OC(CO)C(N=[N+]=[N-])C1O2 (centres undefined)
SNB-78
  GI50: > 100 µM (inactive)
KM-20L2
  GI50: > 100 µM (inactive)
DMS-114
  GI50: > 100 µM (inactive)
DMS-273
  GI50: > 100 µM (inactive)
DLD-1
  GI50: > 100 µM (inactive)
LXFL 529
  GI50: > 100 µM (inactive)

## C[C@]12CC[C@H](O)CC1CCC[C@@H]2O (some centres undefined)
SNB-78
  GI50: > 100 µM (inactive)
DMS-114
  GI50: > 100 µM (inactive)
DMS-273
  GI50: > 100 µM (inactive)
DLD-1
  GI50: > 100 µM (inactive)
XF498
  GI50: > 100 µM (inactive)
RXF 631
  GI50: > 100 µM (inactive)
LXFL 529
  GI50: > 100 µM (inactive)

## CCO/C=C1\N=C(c2ccc(Cl)c(Cl)c2)OC1=O
SNB-78
  GI50: > 100 µM (inactive)
KM-20L2
  GI50: > 100 µM (inactive)
DMS-114
  GI50: 28.4 µM (inactive)
DMS-273
  GI50: > 100 µM (inactive)
DLD-1
  GI50: > 100 µM (inactive)
XF498
  GI50: > 100 µM (inactive)
LXFL 529
  GI50: > 100 µM (inactive)

## O=c1c2ccccc2c2nc3ccccc3nc2n1C1CCCCC1
SNB-78
  GI50: > 100 µM (inactive)
KM-20L2
  GI50: > 100 µM (inactive)
DMS-114
  GI50: > 100 µM (inactive)
DMS-273
  GI50: > 100 µM (inactive)
LXFL 529
  GI50: > 100 µM (inactive)

## COC(=O)C1=C(C(=O)OC)C2(c3ccccc3)OC1(c1ccccc1)c1cc3ccccc3cc12
KM-20L2
  GI50: 1.88 µM (inactive)
HOP-18
  GI50: 1.22 µM (inactive)
DMS-273
  GI50: 1.76 µM (inactive)
DLD-1
  GI50: 1.74 µM (inactive)
RXF 631
  GI50: 1.88 µM (inactive)
LXFL 529
  GI50: 1.22 µM (inactive)

## CCC1(OC(=O)CN2CCN(CCO)CC2)C(=O)OCc2c1cc1n(c2=O)Cc2cc3ccccc3nc2-1 (centres undefined)
SNB-78
  GI50: 5.25 µM (inactive)
KM-20L2
  GI50: 1.22 µM (inactive)
HOP-18
  GI50: 0.76 µM (active)
DMS-114
  GI50: 0.558 µM (active)
DMS-273
  GI50: 0.0652 µM (active)
DLD-1
  GI50: 6.62 µM (inactive)
XF498
  GI50: 2.16 µM (inactive)
LXFL 529
  GI50: 6.05 µM (inactive)

## NC(=O)c1cccc([C@@H]2O[C@H](CO)[C@@H](O)[C@H]2O)c1
SNB-78
  GI50: 7.43 µM (inactive)
KM-20L2
  GI50: 7.36 µM (inactive)
HOP-18
  GI50: 26.1 µM (inactive)
DMS-114
  GI50: 15.3 µM (inactive)
DMS-273
  GI50: 7.66 µM (inactive)
DLD-1
  GI50: 5.46 µM (inactive)
XF498
  GI50: 2.05 µM (inactive)
RXF 631
  GI50: 12 µM (inactive)

## CC(=O)O[C@H]1C(=O)[C@@]2(C)C([C@H](OC(=O)c3ccccc3)[C@]3(O)C[C@H](OC(=O)[C@H](O)[C@H](NC(=O)c4ccccc4)c4ccc(Cl)cc4)C(C)=C1C3(C)C)C1(OC(C)=O)CO[C@@H]1C[C@@H]2O (some centres undefined)
SNB-78
  GI50: 0.071 µM (active)
KM-20L2
  GI50: 0.00103 µM (active)
HOP-18
  GI50: 0.0794 µM (active)
DMS-114
  GI50: < 0.0001 µM (active)
DMS-273
  GI50: 0.000111 µM (active)
DLD-1
  GI50: 0.00233 µM (active)
XF498
  GI50: 0.00728 µM (active)
RXF 631
  GI50: 0.104 µM (active)
LXFL 529
  GI50: 0.00191 µM (active)

## c1ccc(C(c2ccccc2)c2ccccn2)cc1
SNB-78
  GI50: > 100 µM (inactive)
KM-20L2
  GI50: > 100 µM (inactive)
HOP-18
  GI50: > 100 µM (inactive)
DMS-114
  GI50: > 100 µM (inactive)
DMS-273
  GI50: > 100 µM (inactive)
DLD-1
  GI50: > 100 µM (inactive)
XF498
  GI50: > 100 µM (inactive)
RXF 631
  GI50: > 100 µM (inactive)
